Reference: patent publication US10934273B2, “Crystalline forms of 4-(2-((1R,2R)-2-hydroxycyclohexylamino)benzothiazol-6-yloxy)-N-methylpicolinamide” (Novartis AG, priority 2016, dated 2021)
Structures can show the parent of a compound that is named as a salt. Where two headings read alike, the source gives them in different places.

Experiments:
Type in all cases: physicochemical
[1] = Bulk physical and chemical stability (degradation under stress conditions)
Text: Five hydrated forms of the di-hydrochloride salt were identified, which included the crystalline di-hydrochloride monohydrate salt of 4-(2-((1R,2R)-2-hydroxycyclohexylamino)benzothiazol-6-yloxy)-N-methylpicolinamide (Form A) discussed herein.

Aqueous solubility = conditions: aqueous medium, aqueous buffer
Description: (§1) The crystalline di-hydrochloride monohydrate salt of 4-(2-((1R,2R)-2-hydroxycyclohexylamino)benzothiazol-6-yloxy)-N-methylpicolinamide (Form A) exists primarily as a crystalline material. Form A is hygroscopic, having a maximum water uptake of about 10.79% at 25° C. and up to 95% relative humidity (RH)). […] Form A has a very low aqueous solubility at neutral pH (about 0.006 mg/mL), however it has a high aqueous solubility at low pH (about >20 mg/mL).

[2] = Intrinsic dissolution rate; conditions: pH 4.5; Form A versus Form B
[3] = Hygroscopicity (water uptake / exposure to humidity)
Description: as §1

thermodynamic stability compared to the other four hydrated forms ([1]; ambient conditions): more thermodynamically stable hydrate | degradation of bulk drug substance ([1]; one to two weeks at 50° C., 75% relative humidity): less than 1% | degradation of bulk drug substance ([1]; one to two weeks at 50° C., ambient relative humidity): less than 1% | degradation of bulk drug substance ([1]; one week at 80° C., ambient relative humidity): less than 1% | solubility (Aqueous solubility; low pH, read-out: aqueous solubility at low pH): > 20000 µg/mL | solubility (Aqueous solubility; neutral pH, read-out: aqueous solubility at neutral pH): ~6 µg/mL | intrinsic dissolution rate relative to mono-hydrochloride salt (Form B) [2]: about 150 fold | maximum water uptake ([3]; 25° C., up to 95% relative humidity (RH)): about 10.79% | phase change on exposure to humidity ([3]; exposure to humidity): little to no phase change
SMILES: CNC(=O)c1cc(Oc2ccc3nc(N[C@@H]4CCCC[C@H]4O)sc3c2)ccn1 [Form A, Di-Hydrochloride Monohydrate Salt of 4-(2-((1R,2R)-2-hydroxycyclohexylamino)benzothiazol-6-yloxy)-N-methylpicolinamide]
